What was measured:
[1] = system: Staphylococcus epidermidis; test: ASTM E2315-16 Time-Kill Procedure; format: cell-based; conditions: 30 seconds
Protocol: (§1) Select compounds were tested for antimicrobial activity using ASTM method […]-16 (Standard Guide for Assessment of Antimicrobial Activity using a Time-Kill Procedure). Six microbes were tested: Candida albicans, Staphylococcus aureus, Staphylococcus epidermidis. Escherichia coli, Salmonella abony, and Listeria monocytogenes. Four chlorhexidine salts were tested: chlorhexidine di-α-glucoheptonate (Sample G), chlorhexidine di-β73-glucoheptonate (Sample H), chlorhexidine digluconate (Sample I), and chlorhexidine diacetate (Sample P). Both chlorhexidine diglucoheptonate salts were prepared at a 2:1 molar ratio of glucoheptonic acid to chlorhexidine. Dilutions of each salt were prepared using sterile water (20-30 ppm hardness), to achieve the desired wt. % concentration. Two glucoheptonic acids were evaluated for antimicrobial activity against the same six microbes as Example 13. Sample L was α-glucoheptonic acid. Sample M was β73-glucoheptonic acid. Benzalkonium salts were also tested using the same procedure as set forth in Example 13. The samples were benzalkonium chloride (C12-C16) (Sample C), benzalkonium chloride (C12-C14) (Sample D), benzalkonium chloride in combination with a stoichiometric amount of α-glucoheptonate (Sample F), and benzalkonium chloride in combination with a molar excess of α-glucoheptonate (Sample N). Sample F was prepared by mixing and extensively heating a stoichiometric quantity (1:1) of sodium α-glucoheptonate with benzalkonium chloride, typified by the C12-14 alkyl chain. Sample N was prepared by simply blending benzalkonium chloride, typified by the C12-16 chain, with a molar excess of sodium α-glucoheptonate (1.6:1). Both Samples F and N contain sodium chloride.

Candida albicans = test: ASTM E2315-16 Time-Kill Procedure; format: cell-based; conditions: 30 seconds
Protocol: as §1

Staphylococcus aureus = test: ASTM E2315-16 Time-Kill Procedure; format: cell-based; conditions: 30 seconds
Protocol: as §1

Escherichia coli = test: ASTM E2315-16 Time-Kill Procedure; format: cell-based; conditions: 30 seconds
Protocol: as §1, with “concentration.” for “concentration. Two glucoheptonic acids were evaluated for antimicrobial activity against the same six microbes as Example 13. Sample L was α-glucoheptonic acid. Sample M was β73-glucoheptonic acid.”

Listeria monocytogenes = test: ASTM E2315-16 Time-Kill Procedure; format: cell-based; conditions: 30 seconds
Protocol: as §1, with “concentration.” for “concentration. Two glucoheptonic acids were evaluated for antimicrobial activity against the same six microbes as Example 13. Sample L was α-glucoheptonic acid. Sample M was β73-glucoheptonic acid.”

Salmonella abony = test: ASTM E2315-16 Time-Kill Procedure; format: cell-based; conditions: 30 seconds
Protocol: as §1, with “concentration.” for “concentration. Two glucoheptonic acids were evaluated for antimicrobial activity against the same six microbes as Example 13. Sample L was α-glucoheptonic acid. Sample M was β73-glucoheptonic acid.”

[2] = Bubble pressure tensiometry (dynamic surface tension, calculated CMC); format: physicochemical; conditions: sub-CMC, CMC and super-CMC concentrations; FIGS. 1-7
Protocol: Dynamic surface tensions of certain formulations were measured using a KRÜSS BP100 BPT Mobile bubble pressure tensiometer. Samples of the solution of Example 7 were tested by adding the test solution to a glass dish and lowering the disposable capillary tip and temperature probe into the solution. The dynamic setting was selected, and the instrument was set to collect 30 data points, the bubble age increasing from about 10 ms to about 30,000 ms.
Bubble tensiometry was used to calculate the Critical Micelle Concentration (CMC) value for each of the solutions.
FIG. 1 presents a comparison of the bubble age to surface tension for RM14A at CMC, sub-CMC, and super-CMC concentrations. FIG. 2 presents a comparison of the bubble age to surface tension for RM14B at CMC, sub-CMC, and super-CMC concentrations. FIG. 3 presents a comparison of the bubble age to surface tension for RM14C at CMC, sub-CMC, and super-CMC concentrations. FIG. 4 presents a comparison of the bubble age to surface tension for RM12A, RM13A, RM14A, and RM15A at super-CMC concentrations. FIG. 5 presents a comparison of the bubble age to surface tension for RM12A, RM13A, RM14A, and RM15A at CMC concentrations. FIG. 6 presents a comparison of the bubble age to surface tension for RM12A, RM13A, RM14A, and RM15A at CMC concentrations. FIG. 7 presents a comparison of bubble age to surface tension for RM12A, RM13A, RM14A, and RM15A at sub-CMC concentrations.

[3] = system: all microbes (Candida albicans, Staphylococcus aureus, Staphylococcus epidermidis, Escherichia coli, Salmonella abony, Listeria monocytogenes); test: ASTM E2315-16 Time-Kill Procedure, average across all microbes; format: cell-based; conditions: for Log Reduction, Average, all microbes: 30 seconds; for average Log Reduction (LR) in microbial population across all microbes: 10 minutes
Protocol: Select compounds were tested for antimicrobial activity using ASTM method […]-16 (Standard Guide for Assessment of Antimicrobial Activity using a Time-Kill Procedure). Six microbes were tested: Candida albicans, Staphylococcus aureus, Staphylococcus epidermidis. Escherichia coli, Salmonella abony, and Listeria monocytogenes. Four chlorhexidine salts were tested: chlorhexidine di-α-glucoheptonate (Sample G), chlorhexidine di-β73-glucoheptonate (Sample H), chlorhexidine digluconate (Sample I), and chlorhexidine diacetate (Sample P). Both chlorhexidine diglucoheptonate salts were prepared at a 2:1 molar ratio of glucoheptonic acid to chlorhexidine. Dilutions of each salt were prepared using sterile water (20-30 ppm hardness), to achieve the desired wt. % concentration. Samples G, H, I, and P were also tested at a concentration of 0.60 wt % active and evaluated for the average Log Reduction in microbial population at 10 minutes, across all microbes. A further test was conducted at a concentration of 1.0 wt % active and evaluated for the average Log Reduction in microbial population at 10 minutes, across all microbes. Benzalkonium salts were also tested using the same procedure as set forth in Example 13. The samples were benzalkonium chloride (C12-C16) (Sample C), benzalkonium chloride (C12-C14) (Sample D), benzalkonium chloride in combination with a stoichiometric amount of α-glucoheptonate (Sample F), and benzalkonium chloride in combination with a molar excess of α-glucoheptonate (Sample N). Sample F was prepared by mixing and extensively heating a stoichiometric quantity (1:1) of sodium α-glucoheptonate with benzalkonium chloride, typified by the C12-14 alkyl chain. Sample N was prepared by simply blending benzalkonium chloride, typified by the C12-16 chain, with a molar excess of sodium α-glucoheptonate (1.6:1). Both Samples F and N contain sodium chloride. A further antimicrobial test was conducted to determine the log reduction at 10 minutes. Samples C, D, F, and N are as defined above.

N=C(NCCCCCCNC(=N)NC(=N)Nc1ccc(Cl)cc1)NC(=N)Nc1ccc(Cl)cc1.O=C(O)C(O)C(O)C(O)C(O)C(O)CO.O=C(O)C(O)C(O)C(O)C(O)C(O)CO [Sample H, chlorhexidine di-β73-glucoheptonate]
Log Reduction ([1]; 0.20% (wt. %)): 1.47
Log Reduction ([1]; 0.60% (wt. %)): 2.65
Log Reduction ([1]; 1.00% (wt. %)): 3.75
Log Reduction (Candida albicans; 0.20% (wt. %)): 4.26
Log Reduction (Candida albicans; 0.60% (wt. %)): 4.56
Log Reduction (Candida albicans; 1.00% (wt. %)): 4.51
Log Reduction (Staphylococcus aureus; 0.20% (wt. %)): 0.76
Log Reduction (Staphylococcus aureus; 0.60% (wt. %)): 3.19
Log Reduction (Staphylococcus aureus; 1.00% (wt. %)): 4.33
Log Reduction (Escherichia coli; 0.20% (wt. %)): 2.39
Log Reduction (Escherichia coli; 0.60% (wt. %)): 2.87
Log Reduction (Escherichia coli; 1.00% (wt. %)): 3.77
Log Reduction (Listeria monocytogenes; 0.20% (wt. %)): 1.57
Log Reduction (Listeria monocytogenes; 0.60% (wt. %)): 4.99
Log Reduction (Listeria monocytogenes; 1.00% (wt. %)): 5.27
Log Reduction (Salmonella abony; 0.20% (wt. %)): 3.14
Log Reduction (Salmonella abony; 0.60% (wt. %)): 3.26
Log Reduction (Salmonella abony; 1.00% (wt. %)): 3.44
surface tension versus bubble age (rate and magnitude of reduction) [2]: fall more rapidly and to a lower value than either the di-α-glucoheptonate or the comparative digluconate salt
Log Reduction, Average, all microbes ([3]; 0.20% (wt. %)): 2.27
Log Reduction, Average, all microbes ([3]; 0.60% (wt. %)): 3.59
Log Reduction, Average, all microbes ([3]; 1.00% (wt. %)): 4.18
average Log Reduction (LR) in microbial population across all microbes ([3]; 0.60 wt % active): 5.25
average Log Reduction (LR) in microbial population across all microbes ([3]; 1.0 wt % active): 5.51
performance in the Time-Kill Test ([3]; at lower concentrations): better performance than the di-α-glucoheptonate salt

From patent US20240197938A1, “ANTIMICROBIAL COMPOUNDS BASED ON GLUCOHEPTONIC ACIDS AND THEIR SALTS” (HARCROS CHEMICALS, INC., priority 2021, published 2024)
